Structures can show the parent of a compound that is named as a salt. Values belong to the molecule of their own block, whether it stands above or below them.
What was measured:
conscious dogs = experiment: Bradycardic effect in conscious dogs with hydralazine-raised heart rate (Kobinger and Lillie); format: in vivo; conditions: for Heart rate after / Heart rate before / Heart rate Change: 1 mg/kg iv; for Heart rate after: after test product; for Heart rate after / Heart rate Change: hydralazine tachycardia; for Heart rate before: before test product, after hydralazine 1 mg/kg iv
Method: When the latter has stabilized, the test products are injected intravenously.

Solubility in water = format: physicochemical
Left atrium = experiment: Inotropic effect on isolated electrically stimulated left atrium; parameters: species or system guineapig; conditions: Cavia porcellus, electrically stimulated at fixed rhythm, percentage change; for inhibition at 0.3 µg/mL: 0.3 ug/ml; for inhibition at 1 µg/mL: 1 ug/ml
Method: (§1) c) Finally, the chronotropic and inotropic activities were measured on isolated guineapig atria placed in isolated organ cells. The organs are then connected to force gauges. The right atrium, beating in a spontaneous rhythm, enables the negative chronotropic effects of the products to be assessed. As regards the left atria, these are electrically stimulated at a fixed rhythm so as to evaluate actions on the inotropic effect. The percentage changes are recorded in Table V for the compounds A, B, G and J, by way of non-limiting examples.

Right atrium = experiment: Chronotropic effect on isolated spontaneously beating right atrium; parameters: species or system guineapig; conditions: Cavia porcellus, spontaneous rhythm, percentage change; for inhibition at 0.3 µg/mL: 0.3 ug/ml; for inhibition at 1 µg/mL: 1 ug/ml
Method: as §1

[1] = Acute intravenous toxicity in mice (LD50, Miller and Tainter); conditions: mouse, in vivo, mice weighing 20 to 22 g
Method: The chemical compounds described above were subjected to toxicity controls. This study was carried out on conventional mice weighing 20 to 22 g. The watersoluble salts of the compounds of general formula I were administered intravenously. The 50% lethal dose (LD50) is calculated according to the method of Miller and Tainter (Proc. Soc. Exp. Biol. Med. 1944, 57, 261).

anesthetized rats = experiment: Coronary ligation in anesthetized rats (antiarrhythmic activity and heart rate); format: in vivo; conditions: for % fall in heart rate after 1 min: 1 min after injection; for % fall in heart rate after 1 min / % fall in heart rate after 10 min: % change relative to controls; for % fall in heart rate after 10 min: 10 min after injection; for % fall in arrhythmias: coronary ligation
From the text: a) The technique of coronary ligation in anesthetized rats according to Clark et al. (J. Pharm. […] SC denotes the percentage reduction in disorders of rhythm induced by these compounds, n denotes the number of animals.

[2] = system: rats anesthetized with pentobarbital sodium; experiment: Bradycardic effect and intracardiac conduction times (ECG, arterial pressure) in pentobarbital-anesthetized rats; format: in vivo; conditions: for % ABP (mean arterial blood pressure) / % HR (heart rate): % change at peak of action; for % modification of the ECG intervals: PQ (atrioventricular conduction time) / % modification of the ECG intervals: QRS (intraventricular conduction time) / % modification of the ECG intervals: QTS / % modification of the ECG intervals: TP (electrocardiac diastole): at peak of action
Method: b) The bradycardic effect and the analysis of the intracardiac conduction times were studied on rats anesthetized with pentobarbital sodium (40 mg/kg ip) and left in spontaneous ventilation. The electrocardiogram is recorded simultaneously in the standard leads OI, OII and OIII; the arterial blood pressure is measured on a femoral artery. The percentage changes are considered at the peak of action. The results relating to the compounds A, B, J, G and N are given in Table III, by way of non-limiting example.

Structure (SMILES): NNc1nncc2ccccc12 [hydralazine, reference compound]
heart rate effect of hydralazine (conscious dogs; hydralazine 1 mg/kg iv, conscious dogs): causes tachycardia

Structure (SMILES): COc1ccc(CCN(C)CCCN2COc3cc(OC)c(OC)cc3C2=O)cc1OC.Cl [Compound B, 2,3-Dihydro-6,7-dimethoxy-3-{3-[(methyl)(3,4-dimethoxyphenethyl)amino]propyl}-4H-1,3-benzoxazin-4-one hydrochloride]
solubility (Solubility in water): > 100 mg/mL | inhibition at 0.3 µg/mL (Left atrium): 9% | inhibition at 1 µg/mL (Left atrium): 6.5% | Heart rate after (conscious dogs): 105 bts/min | Heart rate before (conscious dogs): 175 bts/min | Heart rate Change (conscious dogs): -40% | inhibition at 0.3 µg/mL (Right atrium): 27% | inhibition at 1 µg/mL (Right atrium): 64% | LD50 [1]: 48 mg/kg | % fall in heart rate after 1 min (anesthetized rats; 2.5 mg/kg iv): -50% | % fall in heart rate after 10 min (anesthetized rats; 2.5 mg/kg iv): -28% | % fall in arrhythmias (anesthetized rats; 2.5 mg/kg iv): -38% | % fall in heart rate after 1 min (anesthetized rats; 10 mg/kg iv): -66% | % fall in heart rate after 10 min (anesthetized rats; 10 mg/kg iv): -60% | % fall in arrhythmias (anesthetized rats; 10 mg/kg iv): -80% | % ABP (mean arterial blood pressure) ([2]; 1 mg/kg iv): -16% | % HR (heart rate) ([2]; 1 mg/kg iv): -32% | % modification of the ECG intervals: PQ (atrioventricular conduction time) ([2]; 1 mg/kg iv): +9% | % modification of the ECG intervals: QRS (intraventricular conduction time) ([2]; 1 mg/kg iv): +12% | % modification of the ECG intervals: QTS ([2]; 1 mg/kg iv): +38% | % modification of the ECG intervals: TP (electrocardiac diastole) ([2]; 1 mg/kg iv): +95% | % ABP (mean arterial blood pressure) ([2]; 3 mg/kg iv): -34% | % HR (heart rate) ([2]; 3 mg/kg iv): -55% | % modification of the ECG intervals: PQ (atrioventricular conduction time) ([2]; 3 mg/kg iv): +17% | % modification of the ECG intervals: QRS (intraventricular conduction time) ([2]; 3 mg/kg iv): +24% | % modification of the ECG intervals: QTS ([2]; 3 mg/kg iv): +75% | % modification of the ECG intervals: TP (electrocardiac diastole) ([2]; 3 mg/kg iv): +211%

Structure (SMILES): COc1ccc(CCNCCCN2COc3cc(OC)c(OC)cc3C2=O)cc1OC.Cl [Compound P, 2,3-Dihydro-6,7-dimethoxy-3-[3-(3,4-dimethoxyphenethylamino)propyl]-4H-1,3-benzoxazin-4-one hydrochloride]
solubility (Solubility in water): > 100 mg/mL

Structure (SMILES): COc1ccc2c(c1)OCN(CCCN(C)CCc1ccc(OC)c(OC)c1)C2=O.Cl [Compound E, 2,3-Dihydro-3-{3-[(methyl)(3,4-dimethoxyphenethyl)amino]propyl}-7-methoxy-4H-1,3-benzoxazin-4-one hydrochloride]
solubility (Solubility in water): 100 mg/mL

solubility (Solubility in water): 100 mg/mL
Structure (SMILES): CCCCCCCC1Oc2cc(OC)c(OC)cc2C(=O)N1CCCN(C)CCc1ccc(OC)c(OC)c1 (centres unmarked) [Compound N, hydrochloride]
% fall in heart rate after 1 min (anesthetized rats; 2.5 mg/kg iv): -4% | % fall in heart rate after 10 min (anesthetized rats; 2.5 mg/kg iv): -6% | % fall in arrhythmias (anesthetized rats; 2.5 mg/kg iv): -72% | % ABP (mean arterial blood pressure) ([2]; 1 mg/kg iv): -9% | % HR (heart rate) ([2]; 1 mg/kg iv): -12% | % modification of the ECG intervals: PQ (atrioventricular conduction time) ([2]; 1 mg/kg iv): +7% | % modification of the ECG intervals: QRS (intraventricular conduction time) ([2]; 1 mg/kg iv): +12% | % modification of the ECG intervals: QTS ([2]; 1 mg/kg iv): +10% | % modification of the ECG intervals: TP (electrocardiac diastole) ([2]; 1 mg/kg iv): +21%

Structure (SMILES): COc1ccc(CCN(C)CCCN2C(=O)c3cc(OC)c(OC)cc3OC2C)cc1OC.Cl (centres unmarked) [Compound M, 2,3-Dihydro-6,7-dimethoxy-3-{3-[(methyl)(3,4-dimethoxyphenethyl)amino]propyl}-2-methyl-4H-1,3-benzoxazin-4-one hydrochloride]
solubility (Solubility in water): 100 mg/mL

Structure (SMILES): COc1ccc(CCN(C)CCCN2COc3ccccc3C2=O)cc1OC.Cl [Compound A, 2,3-Dihydro-3-{3-[(methyl)(3,4-dimethoxyphenethyl)amino]propyl}-4H-1,3-benzoxazin-4-one hydrochloride]
solubility (Solubility in water): 100 mg/mL | inhibition at 0.3 µg/mL (Left atrium): 16% | inhibition at 1 µg/mL (Left atrium): 15% | Heart rate after (conscious dogs): 140 bts/min | Heart rate before (conscious dogs): 215 bts/min | Heart rate Change (conscious dogs): -35% | inhibition at 0.3 µg/mL (Right atrium): 15% | inhibition at 1 µg/mL (Right atrium): 19% | LD50 [1]: 27 mg/kg | % fall in heart rate after 1 min (anesthetized rats; 2.5 mg/kg iv): -30% | % fall in heart rate after 10 min (anesthetized rats; 2.5 mg/kg iv): -11% | % fall in arrhythmias (anesthetized rats; 2.5 mg/kg iv): -9% | % fall in heart rate after 1 min (anesthetized rats; 10 mg/kg iv): -50% | % fall in heart rate after 10 min (anesthetized rats; 10 mg/kg iv): -19% | % fall in arrhythmias (anesthetized rats; 10 mg/kg iv): -76% | % ABP (mean arterial blood pressure) ([2]; 3 mg/kg iv): -33% | % HR (heart rate) ([2]; 3 mg/kg iv): -31% | % modification of the ECG intervals: PQ (atrioventricular conduction time) ([2]; 3 mg/kg iv): +26% | % modification of the ECG intervals: QRS (intraventricular conduction time) ([2]; 3 mg/kg iv): +11% | % modification of the ECG intervals: QTS ([2]; 3 mg/kg iv): +29% | % modification of the ECG intervals: TP (electrocardiac diastole) ([2]; 3 mg/kg iv): +76%

Structure (SMILES): COc1ccc(CCN(C)CCCN2COc3c(OC)cccc3C2=O)cc1OC.Cl [Compound C, 2,3-Dihydro-3-{3-[(methyl)(3,4-dimethoxyphenethyl)amino]propyl}-8-methoxy-4H-1,3-benzoxazin-4-one hydrochloride]
solubility (Solubility in water): ~100 mg/mL

Structure (SMILES): COc1ccc(CCN(C)CCCN2C(=O)c3cccc(OC)c3OC2C)cc1OC.Cl (centres unmarked) [Compound L, 2,3-Dihydro-3-{3-[(methyl)(3,4-dimethoxyphenethyl)amino]propyl}-8-methoxy-2-methyl-4H-1,3-benzoxazin-4-one hydrochloride]
solubility (Solubility in water): 100 mg/mL

Structure (SMILES): COc1ccc(CCN(C)CCCN2COc3c(C)cccc3C2=O)cc1OC.Cl [Compound H, 2,3-Dihydro-3-{3-[(methyl)(3,4-dimethoxyphenethyl)amino]propyl}-8-methyl-4H-1,3-benzoxazin-4-one hydrochloride]
solubility (Solubility in water): 80 mg/mL

solubility (Solubility in water): 90 mg/mL
Structure (SMILES): COc1ccc(CCN(C)CCCN2COc3cc(C)ccc3C2=O)cc1OC.Cl [Compound G, 2,3-Dihydro-3-{3-[(methyl)(3,4-dimethoxyphenethyl)amino]propyl}-7-methyl-4H-1,3-benzoxazin-4-one hydrochloride]
inhibition at 1 µg/mL (Left atrium): 4% | inhibition at 1 µg/mL (Right atrium): 35% | % fall in heart rate after 1 min (anesthetized rats; 2.5 mg/kg iv): -39% | % fall in heart rate after 10 min (anesthetized rats; 2.5 mg/kg iv): -16% | % fall in arrhythmias (anesthetized rats; 2.5 mg/kg iv): -1% | % ABP (mean arterial blood pressure) ([2]; 1 mg/kg iv): -10% | % HR (heart rate) ([2]; 1 mg/kg iv): -18% | % modification of the ECG intervals: PQ (atrioventricular conduction time) ([2]; 1 mg/kg iv): +10% | % modification of the ECG intervals: QRS (intraventricular conduction time) ([2]; 1 mg/kg iv): +5% | % modification of the ECG intervals: QTS ([2]; 1 mg/kg iv): +12% | % modification of the ECG intervals: TP (electrocardiac diastole) ([2]; 1 mg/kg iv): +32%

Structure (SMILES): COc1ccc(CCN(C)CCCN2COc3ccc(Br)cc3C2=O)cc1OC.Cl [Compound K, 6-Bromo-2,3-dihydro-3-{3-[(methyl)(3,4-dimethoxyphenethyl)amino]propyl}-4H-1,3-benzoxazin-4-one hydrochloride]
solubility (Solubility in water): 90 mg/mL

Structure (SMILES): COc1ccc(CCNCCN2COc3cc(OC)c(OC)cc3C2=O)cc1OC.Cl [Compound R, 2,3-Dihydro-6,7-dimethoxy-3-[2-(3,4-dimethoxyphenethylamino)ethyl]-4H-1,3-benzoxazin-4-one hydrochloride]
solubility (Solubility in water): 120 mg/mL

solubility (Solubility in water): 120 mg/mL
Structure (SMILES): COc1ccc(CCN(C)CCCN2COc3cc(Cl)ccc3C2=O)cc1OC.Cl [Compound J, 7-Chloro-2,3-dihydro-3-{3-[(methyl)(3,4-dimethoxyphenethyl)amino]propyl}-4H-1,3-benzoxazin-4-one hydrochloride]
inhibition at 1 µg/mL (Left atrium): 11% | inhibition at 1 µg/mL (Right atrium): 29% | % fall in heart rate after 1 min (anesthetized rats; 2.5 mg/kg iv): -32% | % fall in heart rate after 10 min (anesthetized rats; 2.5 mg/kg iv): -12% | % fall in arrhythmias (anesthetized rats; 2.5 mg/kg iv): -37% | % ABP (mean arterial blood pressure) ([2]; 1 mg/kg iv): -13% | % HR (heart rate) ([2]; 1 mg/kg iv): -16% | % modification of the ECG intervals: PQ (atrioventricular conduction time) ([2]; 1 mg/kg iv): +9% | % modification of the ECG intervals: QRS (intraventricular conduction time) ([2]; 1 mg/kg iv): +12% | % modification of the ECG intervals: QTS ([2]; 1 mg/kg iv): +12% | % modification of the ECG intervals: TP (electrocardiac diastole) ([2]; 1 mg/kg iv): +29%

Structure (SMILES): COc1cc2c(cc1OC)C(=O)N(CCCN(C)CCc1ccccc1)CO2.Cl [Compound O, 2,3-Dihydro-6,7-dimethoxy-3-{3-[(methyl)(phenethyl)amino]propyl}-4H-1,3-benzoxazin-4-one hydrochloride]
solubility (Solubility in water): > 100 mg/mL

solubility (Solubility in water): 60 mg/mL
Structure (SMILES): COc1ccc(CCN(CCCN2COc3cc(OC)c(OC)cc3C2=O)Cc2ccccc2)cc1OC [Example 17, 2,3-Dihydro-6,7-dimethoxy-3-{3-[(benzyl)(3,4-dimethoxyphenethyl)amino]propyl}-4H-1,3-benzoxazin-4-one hydrochloride monohydrate]

Structure (SMILES): COc1ccc2c(c1)C(=O)N(CCCN(C)CCc1ccc(OC)c(OC)c1)CO2.Cl [Compound D, 2,3-Dihydro-3-{3-[(methyl)(3,4-dimethoxyphenethyl)amino]propyl}-6-methoxy-4H-1,3-benzoxazin-4-one hydrochloride]
solubility (Solubility in water): > 100 mg/mL

Structure (SMILES): COc1ccc(CCN(C)CCCN2COc3ccc(C)cc3C2=O)cc1OC.Cl [Compound F, 2,3-Dihydro-3-{3-[(methyl)(3,4-dimethoxyphenethyl)amino]propyl}-6-methyl-4H-1,3-benzoxazin-4-one hydrochloride]
solubility (Solubility in water): ~100 mg/mL

Source: patent US5071850A, “2,3-dihydro-3-arylalkylaminoalkyl-4H-1,3-benzoxazin-4-one derivatives, their preparation and their application as medicinal products which are useful in therapy” (Pierre Fabre Medicament, priority 1988, dated 1991)
